Test results: patent US20250214966A1, “Crystalline Salt Form Of A SHP2 Inhibitor” (Array BioPharma Inc., priority 2022, published 2025)
Counter-ions that a name gives are not always drawn. Like-named read-outs stand apart in the source and are kept apart here.

Key:
Type in all cases: physicochemical
[1] = Dynamic vapor sorption of salts (Table 14); details: 25° C.
Experimental: DVS (Table 14): Approximately, 10-20 mg of sample was placed into a mesh vapor sorption balance pan and loaded into a DVS Intrinsic dynamic vapor sorption balance by Surface Measurement Systems. The sample was subjected to a ramping profile from 40-90% relative humidity (RH) at 10% increments, maintaining the sample at each step until a stable weight had been achieved (dm/dt 0.004%, minimum step length 30 minutes, maximum step length 500 minutes) at 25° C. After completion of the sorption cycle, the sample was dried using the same procedure to 0% RH and then a second sorption cycle back to 40% RH. Two cycles were performed. Theweight change during the sorption/desorption cycles were plotted, allowing for the hygroscopic nature of the sample to be determined. XRPD analysis was then carried out on any solid retained. […] The sample was subjected to a ramping profile from 40-90% relative humidity (RH) at 10% increments, maintaining the sample at each step until a stable weight had been achieved (dm/dt 0.004%, minimum step length 30 minutes, maximum step length 500 minutes) at 25° C. After completion of the sorption cycle, the sample was dried using the same procedure to 0% RH and then a second sorption cycle back to 40% RH. Two cycles were performed. The weight change during the sorption/desorption cycles were plotted, allowing for the hygroscopic nature of the sample to be determined. XRPD analysis was then carried out on any solid retained.

[2] = TGA/DSC of salts (Table 14); details: 10° C./min
Experimental: TGA/DSC (Table 14): Approximately, 5-10 mg of material was added into a pre-tared open aluminum pan and loaded into a TA Instruments Discovery SDT 650 Auto—Simultaneous DSC and held at room temperature. The sample was then heated at a rate of 10° C./min from 20° C. (ambient) to 400° C. during which time the change in sample weight was recorded along with the heat flow response (DSC). Nitrogen was used as the sample purge gas, at a flow rate of 200 cm3/min.
DSC (Table 14): Approximately, 1-5 mg of material was weighed into an aluminum DSC pan and sealed nonhermetically with an aluminum lid. The sample pan was then loaded into a TA Instruments Discovery DSC 2500 differential scanning calorimeter equipped with a RC90 cooler. The sample and reference were heated to 310° C. at a scan rate of 10° C./min and the resulting heat flow response monitored. The sample was re-cooled to 20° C. and then reheated again to 205° C. all at 10° C./min. Nitrogen was used as the purge gas, at a flow rate of 50 cm^3/min.

[3] = Solubility of salts in buffer systems at 37° C. (Table 14); details: thermodynamic from solid, 20 mg in 1 mL
Experimental: The solubility (Table 14) was determined by adding 20 mg of salts (Examples 3 to 8) into 3 HPLC vials, to each vial, a magnetic stirrer bar was added along with 1 mL of the appropriate buffer system (pH 1.2 HCl, pH 4.5 sodium acetate, or pH 6.8 phosphate). The samples were agitated at 37° C. for […]. After 24 hours, the slurries were isolated by centrifugation filtration and isolated mother liquors were analyzed by HPLC.
HPLC method (Table 14): A Dionex Ultimate 3000 HPLC instrument was used with a Waters XSelect HSS T3 Column (100 angstrom, 4.6×150 mm, 5 μm). The column temperature was set to 20° C., the UV wavelength set to 254 nm, the injection volume was 10 μL, with a flow rate of 1.0 mL/min. 10 mM ammonium acetate adjusted to pH 4.8 was used as a mobile phase A, and acetonitrile was used as mobile phase B. The gradient method was set up to achieve 15% mobile phase B at 0 minutes, 95% mobile phase B at 17 minutes—held until 22 minutes, 15% mobile phase B at 22.1 minutes—held until 28 minutes.

SMILES: Nc1nccc(Sc2cnc(N3CCC4(CC3)Cc3ccccc3[C@H]4N)nn2)c1Cl [Example 3, (S)-1′-(6-((2-amino-3-chloropyridin-4-yl)thio)-1,2,4-triazin-3-yl)-1,3-dihydrospiro[indene-2,4′-piperidin]-1-amine Mono Succinate Salt Form 1]
- DVS hygroscopic nature [1]: Slightly
- DVS Wt. ([1]; up to 70% RH, possible hydration above 70% RH): hygroscopic 0.7%
- TGA/DSC Melt/degradation [2]: 197.3 °C
- solubility at 18 h ([3]; pH 1.2 HCl buffer, simulated gastric fluid, pH 1.2 HCl, read-out: Solubility pH 1.2 HCl): > 20000 µg/mL
- solubility at 18 h ([3]; pH 4.5 sodium acetate buffer, aqueous buffer, pH 4.5 sodium acetate, read-out: Solubility pH 4.5 Sodium Acetate): 200 µg/mL
- solubility at 18 h ([3]; pH 6.8 phosphate buffer, aqueous buffer, pH 6.8 phosphate, read-out: Solubility Ph 6.8 Phosphate): 1300 µg/mL
